These molecules were tested on recombinant NL4-3 virus (Renilla luciferase in nef, Gag P373S; NLRluc) in MT-2 cells (assay: whole plant or invertebrate). Settings: Renilla, NL43, luciferase activity in cells infected for 4-5 days with NLRluc recombinants, serial dilutions of inhibitor; class symbols (key in Table 1); read-out: EC50.
Format: cell-based, HIV
Description: MT-2 cells and 293T cells were obtained from the NIH AIDS Research and Reference Reagent Program. MT-2 cells were propagated in RPMI 1640 media supplemented with 10% heat inactivated fetal bovine serum, […]. The 293T cells were propagated in DMEM media supplemented with 10% heat inactivated fetal bovine serum (FBS), 100 units/ml penicillin G and 100 μg/ml streptomycin. The proviral DNA clone of NL4-3 was obtained from the NIH AIDS Research and Reference Reagent Program. A recombinant NL4-3 virus, in which a section of the nef gene from NL4-3 was replaced with the Renilla luciferase gene, was used as a reference virus. In addition, residue Gag P373 was converted to P373S. Briefly, the recombinant virus was prepared by transfection of the altered proviral clone of NL4-3. Transfections were performed in 293T cells using LipofectAMINE PLUS from Invitrogen (Carlsbad, Calif.), according to manufacturer's instruction. The virus was titered in MT-2 cells using luciferase enzyme activity as a marker. Luciferase was quantitated using the Dual Luciferase kit from Promega (Madison, Wis.), with modifications to the manufacturer's protocol. The diluted Passive Lysis solution was pre-mixed with the re-suspended Luciferase Assay Reagent and the re-suspended Stop & Glo Substrate (2:1:1 ratio). Fifty (50) μL of the mixture was added to each aspirated well on assay plates and luciferase activity was measured immediately on a Wallac TriLux (Perkin-Elmer). Antiviral activities of inhibitors toward the recombinant virus were quantified by measuring luciferase activity in cells infected for 4-5 days with NLRluc recombinants in the presence serial dilutions of the inhibitor. Table 1 is the key for the data in Table 2.
C=C(C)[C@@H]1CC[C@]2(NCC(=O)NC(C)C)CC[C@]3(C)[C@H](CC[C@@H]4[C@@]5(C)CC=C(c6ccc(C(=O)O)cc6)C(C)(C)[C@@H]5CC[C@]43C)[C@@H]12 [Example 150, 4-((1R,3aS,5aR,5bR,7aR,11aS,11bR,13aR,13bR)-3a-(2-(isopropylamino)-2-oxoethylamino)-5a,5b,8,8,11a-pentamethyl-1-(prop-1-en-2-yl)-2,3,3a,4,5,5a,5b,6,7,7a,8,11,11a,11b,12,13,13a,13b-octadecahydro-1H-cyclopenta[a]chrysen-9-yl)benzoic acid] gave an EC50 of less than 100 nM.
C=C(C)[C@@H]1CC[C@]2(NC(=O)N(CCOC)CCN3CCS(=O)(=O)CC3)CC[C@]3(C)[C@H](CC[C@@H]4[C@@]5(C)CC=C(c6ccc(C(=O)O)cc6)C(C)(C)[C@@H]5CC[C@]43C)[C@@H]12 [Example 67, 4-((1R,3aS,5aR,5bR,7aR,11aS,11bR,13aR,13bR)-3a-(((2-(1,1-dioxido-4-thiomorpholinyl)ethyl)(2-methoxyethyl)carbamoyl)amino)-1-isopropenyl-5a,5b,8,8,11a-pentamethyl-2,3,3a,4,5,5a,5b,6,7,7a,8,11,11a,11b,12,13,13a,13b-octadecahydro-1H-cyclopenta[a]chrysen-9-yl)benzoic acid] was tested, and the EC50 was less than 100 nM.
C=C(C)[C@@H]1CC[C@]2(NCCCN3CCS(=O)(=O)CC3)CC[C@]3(C)[C@H](CC[C@@H]4[C@@]5(C)CC=C(c6ccc(C(=O)O)c(F)c6)C(C)(C)[C@@H]5CC[C@]43C)[C@@H]12 [Example A6, benzoic acid, 4-[(1R,3aS,5aR,5bR,7aR,11aS,11bR,13aR,13bR)-3a-[[3-(1,1-dioxido-4-thiomorpholinyl)propyl]amino]-2,3,3a,4,5,5a,5b,6,7,7a,8,11,11a,11b,12,13,13a,13b-octadecahydro-5a,5b,8,8,11a-pentamethyl-1-(1-methylethenyl)-1H-cyclopenta[a]chrysen-9-yl]-2-fluoro-] was tested, and the EC50 was less than 100 nM.
In the case of C=C(C)[C@@H]1CC[C@]2(NCCN3CCN(S(=O)(=O)c4ccc(F)cc4)CC3)CC[C@]3(C)[C@H](CC[C@@H]4[C@@]5(C)CC=C(c6ccc(C(=O)O)cc6)C(C)(C)[C@@H]5CC[C@]43C)[C@@H]12 [Example B50, 4-((1R,3aS,5aR,5bR,7aR,11aS,11bR,13aR,13bR)-3a-((2-(4-((4-fluorophenyl)sulfonyl)piperazin-1-yl)ethyl)amino)-5a,5b,8,8,11a-pentamethyl-1-(prop-1-en-2-yl)-2,3,3a,4,5,5a,5b,6,7,7a,8,11,11a,11b,12,13,13a,13b-octadecahydro-1H-cyclopenta[a]chrysen-9-yl)benzoic acid], the EC50 is reported as less than 100 nM.
For C=C(C)[C@@H]1CC[C@]2(NC(=O)N(CCO)CCN(C)C)CC[C@]3(C)[C@H](CC[C@@H]4[C@@]5(C)CC=C(c6ccc(C(=O)O)cc6)C(C)(C)[C@@H]5CC[C@]43C)[C@@H]12 [Example 52, 4-((1R,3aS,5aR,5bR,7aR,11aS,11bR,13aR,13bR)-3a-(3-(2-(dimethylamino)ethyl)-3-(2-hydroxyethyl)ureido)-5a,5b,8,8,11a-pentamethyl-1-(prop-1-en-2-yl)-2,3,3a,4,5,5a,5b,6,7,7a,8,11,11a,11b,12,13,13a,13b-octadecahydro-1H-cyclopenta[a]chrysen-9-yl)benzoic acid], the EC50 was less than 100 nM.
With C=C(C)[C@@H]1CC[C@]2(NCCNc3cccnc3)CC[C@]3(C)[C@H](CC[C@@H]4[C@@]5(C)CC=C(c6ccc(C(=O)O)cc6)C(C)(C)[C@@H]5CC[C@]43C)[C@@H]12 [Example 189, 4-((1R,3aS,5aR,5bR,7aR,11aS,11bR,13aR,13bR)-5a,5b,8,8,11a-pentamethyl-1-(prop-1-en-2-yl)-3a-(2-(pyridin-3-ylamino)ethylamino)-2,3,3a,4,5,5a,5b,6,7,7a,8,11,11a,11b,12,13,13a,13b-octadecahydro-1H-cyclopenta[a]chrysen-9-yl)benzoic acid] the EC50 was less than 100 nM.
C=C(C)[C@@H]1CC[C@]2(NCC3CCCNC3)CC[C@]3(C)[C@H](CC[C@@H]4[C@@]5(C)CC=C(c6ccc(C(=O)O)cc6)C(C)(C)[C@@H]5CC[C@]43C)[C@@H]12 (stereo partly drawn) [Example 154, 4-((1R,3aS,5aR,5bR,7aR,11aS,11bR,13aR,13bR)-5a,5b,8,8,11a-pentamethyl-3a-(piperidin-3-ylmethylamino)-1-(prop-1-en-2-yl)-2,3,3a,4,5,5a,5b,6,7,7a,8,11,11a,11b,12,13,13a,13b-octadecahydro-1H-cyclopenta[a]chrysen-9-yl)benzoic acid] showed an EC50 of less than 100 nM.
With C=C(C)[C@@H]1CC[C@]2(NC(=O)C(=O)O)CC[C@]3(C)[C@H](CC[C@@H]4[C@@]5(C)CC=C(c6ccc(C(=O)O)cc6)C(C)(C)[C@@H]5CC[C@]43C)[C@@H]12 [Example 130-1, 4-((1R,3aS,5aR,5bR,7aR,11aS,11bR,13aR,13bR)-3a-(carboxyformamido)-5a,5b,8,8,11a-pentamethyl-1-(prop-1-en-2-yl)-2,3,3a,4,5,5a,5b,6,7,7a,8,11,11a,11b,12,13,13a,13b-octadecahydro-1H-cyclopenta[a]chrysen-9-yl)benzoic acid] the EC50 was greater than 100 nM.
C=C(C)[C@@H]1CC[C@]2(NC(=O)N(CCCOC)CCN3CCS(=O)(=O)CC3)CC[C@]3(C)[C@H](CC[C@@H]4[C@@]5(C)CC=C(c6ccc(C(=O)O)cc6)C(C)(C)[C@@H]5CC[C@]43C)[C@@H]12 [Example 68, 4-((1R,3aS,5aR,5bR,7aR,11aS,11bR,13aR,13bR)-3a-(((2-(1,1-dioxido-4-thiomorpholinyl)ethyl)(3-methoxypropyl)carbamoyl)amino)-1-isopropenyl-5a,5b,8,8,11a-pentamethyl-2,3,3a,4,5,5a,5b,6,7,7a,8,11,11a,11b,12,13,13a,13b-octadecahydro-1H-cyclopenta[a]chrysen-9-yl)benzoic acid] gave an EC50 of less than 100 nM.
For C=C(C)[C@@H]1CC[C@]2(NCCNC(C)=O)CC[C@]3(C)[C@H](CC[C@@H]4[C@@]5(C)CC=C(c6ccc(C(=O)O)cc6)C(C)(C)[C@@H]5CC[C@]43C)[C@@H]12 [Example 195, 4-((1R,3aS,5aR,5bR,7aR,11aS,11bR,13aR,13bR)-3a-(2-acetamidoethylamino)-5a,5b,8,8,11a-pentamethyl-1-(prop-1-en-2-yl)-2,3,3a,4,5,5a,5b,6,7,7a,8,11,11a,11b,12,13,13a,13b-octadecahydro-1H-cyclopenta[a]chrysen-9-yl)benzoic acid], the EC50 was less than 100 nM.
CC(C)[C@@H]1CC[C@]2(NCCN3CCOCC3)CC[C@]3(C)[C@H](CC[C@@H]4[C@@]5(C)CC[C@H](c6ccc(C(=O)O)cc6)C(C)(C)[C@@H]5CC[C@]43C)[C@@H]12 [Example B4] was tested, and the EC50 was less than 100 nM.
In the case of C=C(C)[C@@H]1CC[C@]2(NC(=O)N3CCNCC3)CC[C@]3(C)[C@H](CC[C@@H]4[C@@]5(C)CC=C(c6ccc(C(=O)O)cc6)C(C)(C)[C@@H]5CC[C@]43C)[C@@H]12 [Example 45, 4-((1R,3aS,5aR,5bR,7aR,11aS,11bR,13aR,13bR)-5a,5b,8,8,11a-pentamethyl-3a-(piperazine-1-carboxamido)-1-(prop-1-en-2-yl)-2,3,3a,4,5,5a,5b,6,7,7a,8,11,11a,11b,12,13,13a,13b-octadecahydro-1H-cyclopenta[a]chrysen-9-yl)benzoic acid], the EC50 is reported as less than 100 nM.

Same assay, conditions: Renilla, NL43, luciferase activity in cells infected for 4-5 days with NLRluc recombinants, serial dilutions of inhibitor; numeric values; read-out: EC50
C=C(C)[C@@H]1CC[C@]2(NC(=O)Cn3ccc4ccccc43)CC[C@]3(C)[C@H](CC[C@@H]4[C@@]5(C)CC=C(c6ccc(C(=O)O)cc6)C(C)(C)[C@@H]5CC[C@]43C)[C@@H]12 [Example 90, 4-((1R,3aS,5aR,5bR,7aR,11aS,11bR,13aR,13bR)-3a-(2-(1H-indol-1-yl)acetamido)-5a,5b,8,8,11a-pentamethyl-1-(prop-1-en-2-yl)-2,3,3a,4,5,5a,5b,6,7,7a,8,11,11a,11b,12,13,13a,13b-octadecahydro-1H-cyclopenta[a]chrysen-9-yl)benzoic acid] was tested, and the EC50 was 20 nM.
Molecule C=C(C)[C@@H]1CC[C@]2(NCC(OC)OC)CC[C@]3(C)[C@H](CC[C@@H]4[C@@]5(C)CC=C(c6ccc(C(=O)O)cc6)C(C)(C)[C@@H]5CC[C@]43C)[C@@H]12 [Example 156, 4-((1R,3aS,5aR,5bR,7aR,11aS,11bR,13aR,13bR)-3a-(2,2-dimethoxyethylamino)-5a,5b,8,8,11a-pentamethyl-1-(prop-1-en-2-yl)-2,3,3a,4,5,5a,5b,6,7,7a,8,11,11a,11b,12,13,13a,13b-octadecahydro-1H-cyclopenta[a]chrysen-9-yl)benzoic acid] has an EC50 of 120 nM.

Same assay, conditions: luciferase activity in cells infected for 4-5 days with NLRluc recombinants, serial dilutions of inhibitor; class symbols (key in Table 1); read-out: EC50
In the case of C=C(C)[C@@H]1CC[C@]2(NC(=O)CC(c3cccs3)N3CCS(=O)(=O)CC3)CC[C@]3(C)[C@H](CC[C@@H]4[C@@]5(C)CC=C(c6ccc(C(=O)O)cc6)C(C)(C)[C@@H]5CC[C@]43C)[C@@H]12 (stereo partly drawn) [Example 101], the EC50 is reported as less than 100 nM.
